The Emax is the greatest response seen or fitted, relative to the assay's reference. Broadly, the IC50 is the concentration at which inhibition is half-maximal.

Molecules are shown by their SMILES.

One experiment addresses T1, human OX2R (Homo sapiens, UniProt O43614).
T1 construct: expressed in transfected cells; host or cells: CHO (Chinese hamster ovary) cells, grown under G418 selection
T1 sequence (O43614 1-444): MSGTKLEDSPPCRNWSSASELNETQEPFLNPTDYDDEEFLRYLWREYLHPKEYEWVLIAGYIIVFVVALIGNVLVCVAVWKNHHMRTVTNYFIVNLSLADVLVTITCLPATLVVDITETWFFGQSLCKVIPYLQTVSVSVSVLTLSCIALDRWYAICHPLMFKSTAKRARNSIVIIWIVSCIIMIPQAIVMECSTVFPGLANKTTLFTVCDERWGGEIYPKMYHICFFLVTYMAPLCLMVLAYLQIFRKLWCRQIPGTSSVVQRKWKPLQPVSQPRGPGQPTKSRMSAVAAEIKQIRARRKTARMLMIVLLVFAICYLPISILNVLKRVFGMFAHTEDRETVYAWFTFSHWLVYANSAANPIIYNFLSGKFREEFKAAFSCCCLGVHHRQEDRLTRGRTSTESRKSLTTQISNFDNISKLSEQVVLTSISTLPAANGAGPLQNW
Briefly: IPOne (IP-1) orexin receptor agonist assay in CHO cells expressing human OX2R. It is filed as cell-based. The following applies: CHO, percent of mean max effect of a reference compound at 1 uM with 100% activity vs Orexin A, human OX2R. The source says:
The utility of the compounds in accordance with the present invention as orexin receptor OX1R and/or OX2R agonists may be readily determined without undue experimentation by methodology well known in the art. Both the OX1R and/or OX2R G-coupled protein receptors (GPCRs) couple through the Gaq signaling pathway, which ultimately promotes calcium mobilization via inositol triphosphate (IP3) production. The half-life of IP-3 is relatively short, being rapidly metabolized to inositol monophosphate (IP-1), which can be readily detected using a commercially available assay kit (IP-One; Cisbio; cat #621PAPEC) coupled with a cell line expressing the target receptor(s) of interest. The utility of the compounds in accordance with the present invention as orexin receptor OX1R and/or OX2R agonists may be determined utilizing this assay.
In a typical experiment, the OX1 and OX2 receptor agonist activity is determined in accordance with the following general experimental method. Chinese hamster ovary (CHO) cells expressing human OX1R and/or the human OX2R were grown in Iscove's modified DMEM containing glutaMAX™, 1% G418, 100 U/mL penicillin, 100 μg/mL streptomycin and 10% heat-inactivated qualified fetal bovine serum (FBS). The OX2R cells were seeded at 10,000 cells/well/50 μL and the OX1R cells were seeded at 20,000 cells/well/50 μL into 384-well white tissue culture plates (Greiner; cat #781080). All cell/media reagents were from GIBCO-Invitrogen Corp. The seeded cell plate(s) were incubated at 37° C. with 5% CO2 and 85% humidity for 20-24 hours. On the day of the assay, assay-ready compound plates were prepared using an acoustic liquid handler (ECHO; Labcyte), which dispensed sufficient volume of test compound stock (10 mM in DMSO) or 100% DMSO to prepare 10 point, ½-log dilutions in a final volume of 202.5 nL/well in all test wells of a 384-well diamond plate (Labcyte). Following completion of assay-ready plates, importantly, the next three steps were performed with minimal delay: 1) 20 μl of 1×stimulation buffer was added to the compound plate using a Multidrop Combi (small cassette, Thermo Fisher Scientific cat #24073290); 2) culture medium was removed from the cell plate using the Bluewasher plate washer (gentle spin; BlueCatBio); 3) 14 μl of compound/stimulation buffer mixture was added to the cell plate using a Bravo liquid handler (Agilent) prior to incubating cell plates at 37° C. with 5% CO2 and 85% humidity for 1 or 2 hours (OX1R and OX2R, respectively). During this incubation, IP-one detection reagents were prepared (38:1:1 lysis buffer:D2:AB-cryptate reagents). Six μL of mixed detection reagents were added to the cell plate using a Multidrop Combi (small cassette, Thermo Fisher Scientific cat #24073290) and incubated 60 minutes at room temperature in the dark. Fluorescence signal was detected using an Envision plate reader (Perkin Elmer) [LANCE/DELFIA Dual Enh (Em: APC 665; Ex: Cy5 620)].
For each compound, data were fit to a four parameter logistic fit (ActivityBase software) and the EC50 was reported as the inflection point of the resulting curve. Percent effect for each test compound was determined as the percentage of sample raw value/mean max effect, where the mean max effect was derived from the mean raw value of 32 control wells per assay plate (using Orexin A (cat #003-30) at 1 μM for human OX1R and a reference compound at 1 uM with 100% activity previously established by comparison to Orexin A for human OX2R). The intrinsic orexin receptor agonist activity of a compound which may be used in the present invention may be determined by these assays.
On to `COC(=O)N1CC[C@H](NS(C)(=O)=O)[C@@H]1COC1CCC2(c3ncccn3)CC2C1` (mixture of isomers) [Example 21, methyl (2R,3S)-3-(methylsulfonamido)-2-(((6-(pyrimidin-2-yl)bicyclo[4.1.0]heptan-3-yl)oxy)methyl)pyrrolidine-1-carboxylate], for which the Emax was found to be 94.6%. The compound `COC(=O)N1[C@H](C)C[C@H](NS(=O)(=O)N(C)C)[C@@H]1COC1CCC2(c3ncc(F)cn3)CC2C1` (single isomer, unassigned) [Example 167] gave a maximal response (Emax) of 74.4%.

Still in this experiment, the particulars now being: IPOne assay, CHO cells expressing human OX2R, 2 hours incubation; read-out: hoX2R_IP IC50.
Regarding `COC(=O)N1[C@@H]2COC[C@@H]2C(NS(C)(=O)=O)[C@@H]1COC1CCC2(c3ncc(F)cn3)CC2C1` (mixture of isomers) [Example 134, methyl (2R,3aS,6aS)-2-(((6-(5-fluoropyrimidin-2-yl)bicyclo[4.1.0]heptan-3-yl)oxy)methyl)-3-(methylsulfonamido)hexahydro-1H-furo[3,4-b]pyrrole-1-carboxylate], the IC50 amounted to 83.7 nM. Still for that read-out and setting: the value for `COC(=O)N1[C@H](C)C[C@H](NS(=O)(=O)N(C)C)[C@@H]1COC1CCC2(c3cccc(F)c3)CC2C1` (mixture of isomers) [Example 3, methyl (2R,3S,5R)-3-((N,N-dimethylsulfamoyl)amino)-2-(((6-(3-fluorophenyl)bicyclo[4.1.0]heptan-3-yl)oxy)methyl)-5-methylpyrrolidine-1-carboxylate] was 187 nM; that for `COC(=O)N1CC[C@H](NS(C)(=O)=O)[C@@H]1COC1CCC2(c3ncccn3)CC2C1` (mixture of isomers) [Example 21, methyl (2R,3S)-3-(methylsulfonamido)-2-(((6-(pyrimidin-2-yl)bicyclo[4.1.0]heptan-3-yl)oxy)methyl)pyrrolidine-1-carboxylate] was 1620 nM.

In the case of `COC(=O)N1[C@H](C)C[C@H](NS(=O)(=O)N(C)C)[C@@H]1COC1CCC2(c3cnccn3)CC2C1` (single isomer, unassigned) [Example 11], the IC50 came to 146 nM. On the same count and under the same terms, the value for `COC(=O)N1[C@H](C)C[C@H](NS(=O)(=O)N(C)C)[C@@H]1COC1CCC2(c3cnccn3)CC2C1` (single isomer, unassigned) [Example 14] was 161 nM; that for `CC(C)OC(=O)N1[C@H](C)C[C@H](NS(C)(=O)=O)[C@@H]1CO[C@H]1CC[C@@]2(c3ncc(F)cn3)C[C@H]2C1` (single isomer, unassigned) [Example 28] was 3.4 nM; that for `CC(C)OC(=O)N1[C@H](C)C[C@H](NS(C)(=O)=O)[C@@H]1CO[C@@H]1CC[C@]2(c3ncc(F)cn3)C[C@@H]2C1` (single isomer, unassigned) [Example 29] was 8 nM. On the same count and under the same terms, the value for `COC(=O)N1[C@H](C)C[C@H](NS(=O)(=O)C(F)F)[C@@H]1CO[C@H]1CC[C@@]2(c3ncccn3)C[C@H]2C1` (single isomer, unassigned) [Example 68] was 1.5 nM. Same read-out and setting: the value for `COC(=O)N1[C@H](C)C[C@H](NS(=O)(=O)C(F)F)[C@@H]1CO[C@@H]1CC[C@]2(c3ncccn3)C[C@@H]2C1` (single isomer, unassigned) [Example 69] was 20.4 nM.

For the compound `COC(=O)N1[C@H](C)C[C@H](NS(=O)(=O)C(F)F)[C@@H]1CO[C@H]1CC[C@@]2(c3ncc(Cl)cn3)C[C@H]2C1` (single isomer, unassigned) [Example 78], the IC50 was determined as 1.2 nM. Still for that read-out and setting: the value for `COC(=O)N1[C@H](C)C[C@H](NS(C)(=O)=O)[C@@H]1CO[C@@H]1CC[C@]2(c3ncc(F)cn3)C[C@@H]2C1` (single isomer, unassigned) [Example 136] was 24.5 nM; that for `COC(=O)N1[C@H](C)C[C@H](NS(C)(=O)=O)[C@@H]1CO[C@H]1CC[C@@]2(c3ncc(F)cn3)C[C@H]2C1` (single isomer, unassigned) [Example 137] was 1.4 nM; that for `COC(=O)N1[C@H](C)C[C@H](NS(C)(=O)=O)[C@@H]1CO[C@@H]1CC[C@]2(c3ncc(Cl)cn3)C[C@@H]2C1` (single isomer, unassigned) [Example 141] was 86.4 nM. Same read-out and setting: the value for `COC(=O)N1[C@H](C)C[C@H](NS(C)(=O)=O)[C@@H]1CO[C@H]1CC[C@@]2(c3ncc(Cl)cn3)C[C@H]2C1` (single isomer, unassigned) [Example 142] was 2.8 nM. For `COC(=O)N1[C@H](C)C[C@H](NS(C)(=O)=O)[C@@H]1CO[C@H]1CC[C@@]2(c3nccs3)C[C@H]2C1` (single isomer, unassigned) [Example 146], the IC50 was 50.7 nM.

In the case of `COC(=O)N1[C@H](C)C[C@H](NS(=O)(=O)N(C)C)[C@@H]1COC1CCC2(c3ncc(F)cn3)CC2C1` (single isomer, unassigned) [Example 167], the IC50 is 575 nM. The same measure, in the same setting: the value for `CC(C)OC(=O)N1[C@H](C)C[C@H](NS(=O)(=O)N(C)C)[C@@H]1CO[C@@H]1CC[C@]2(c3ncccn3)C[C@@H]2C1` (single isomer, unassigned) [Example 170] was 5.2 nM; that for `CC(C)OC(=O)N1[C@H](C)C[C@H](NS(=O)(=O)N(C)C)[C@@H]1CO[C@H]1CC[C@@]2(c3ncccn3)C[C@H]2C1` (single isomer, unassigned) [Example 171] was 2.3 nM; that for `COC(=O)N1[C@H](C)C[C@H](NS(=O)(=O)N(C)C)[C@@H]1COC1CCC2(c3cc(F)cc(F)c3)CC2C1` (stereo partly drawn) [Example 4, methyl (2R,3S,5R)-2-(((6-(3,5-difluorophenyl)bicyclo[4.1.0]heptan-3-yl)oxy)methyl)-3-((N,N-dimethylsulfamoyl)amino)-5-methylpyrrolidine-1-carboxylate] was 604 nM. For `COC(=O)N1[C@H](C)C[C@H](NS(=O)(=O)N(C)C)[C@@H]1COC1CCC2(c3ccc(C#N)cc3)CC2C1` (stereo partly drawn) [Example 5, methyl (2R,3S,5R)-2-(((6-(4-cyanophenyl)bicyclo[4.1.0]heptan-3-yl)oxy)methyl)-3-((N,N-dimethylsulfamoyl)amino)-5-methylpyrrolidine-1-carboxylate], the IC50 stood at 278 nM. Still for that read-out and setting: the value for `COC(=O)N1[C@H](C)C[C@H](NS(=O)(=O)N(C)C)[C@@H]1COC1CCC2(c3ncccn3)CC2C1` (stereo partly drawn) [Example 6, methyl (2R,3S,5R)-3-((N,N-dimethylsulfamoyl)amino)-5-methyl-2-(((6-(pyrimidin-2-yl)bicyclo[4.1.0]heptan-3-yl)oxy)methyl)pyrrolidine-1-carboxylate] was 0.94 nM; that for `COC(=O)N1[C@H](C)C[C@H](NS(=O)(=O)N(C)C)[C@@H]1COC1CCC2(c3ncccn3)C(C1)C2(F)F` (stereo partly drawn) [Example 7, methyl (2R,3S,5R)-2-(((7,7-difluoro-6-(pyrimidin-2-yl)bicyclo[4.1.0]heptan-3-yl)oxy)methyl)-3-((N,N-dimethylsulfamoyl)amino)-5-methylpyrrolidine-1-carboxylate] was 9390 nM; that for `COC(=O)N1[C@H](C)C[C@H](NS(=O)(=O)N(C)C)[C@@H]1COC1CCC2(c3ccccn3)CC2C1` (stereo partly drawn) [Example 9, methyl (2R,3S,5R)-3-((N,N-dimethylsulfamoyl)amino)-5-methyl-2-(((6-(pyridin-2-yl)bicyclo[4.1.0]heptan-3-yl)oxy)methyl)pyrrolidine-1-carboxylate] was 28.8 nM.

For `COC(=O)N1[C@H](C)C[C@H](NS(=O)(=O)N(C)C)[C@@H]1COC1CCC2(c3cnccn3)CC2C1` (stereo partly drawn) [Example 10, methyl (2R,3S,5R)-3-((N,N-dimethylsulfamoyl)amino)-5-methyl-2-(((6-(pyrazin-2-yl)bicyclo[4.1.0]heptan-3-yl)oxy)methyl)pyrrolidine-1-carboxylate], the IC50 was 323 nM.

Values taken from patent US20230365533A1, “BICYCLOHEPTANE PYRROLIDINE OREXIN RECEPTOR AGONISTS” (MERCK SHARP & DOHME CORP., priority 2021, published 2023).
